According to patent US10064863B2, “Formulations of 3-(5-amino-2-methyl-4-oxo-4H-quinazolin-3-yl)-piperidine-2,6-dione” (Celgene Corporation, priority 2015, dated 2018):

Assay: Degradation of Compound A by hydrolysis
Format: physicochemical
Description: In another aspect is an anhydrous pharmaceutical composition and dosage form. Such anhydrous forms can reduce or eliminate degradation of active ingredients in the composition resulting from heat or water exposure. For example, the addition of water (e.g., 5 percent) is widely accepted in the pharmaceutical arts as a means of simulating shelf-life, e.g., long-term storage in order to determine characteristics such as shelf-life or the stability of formulations over time. See, e.g., Jens T. Carstensen, Drug Stability: Principles & Practice, 2d. Ed., Marcel Dekker, NY, N.Y., 1995, pp. 379-80. The effect of water on a formulation can be of great significance since moisture or humidity are commonly encountered during manufacture, handling, packaging, storage, shipment, and use of formulations.

degradation by hydrolysis: easily degraded by hydrolysis
SMILES: Cc1nc2cccc(N)c2c(=O)n1C1CCC(=O)NC1=O (stereo not shown) [Compound A, 3-(5-amino-2-methyl-4-oxo-4H-quinazolin-3-yl)-piperidine-2,6-dione]
